# Several values for one entry are separate records, joined by “and”; a condition that tells them apart may be missing. Identical values can stand only once. Entries after “also recorded” stand apart in the source; their conditions may differ. Like-named read-outs stand apart in the source and are kept apart here. No end group written: not given here.
# Tests used:
# ICAM1 = assay: Retinal detachment study, cytokine change from administration to surgery: ICAM1; assay type: in vivo, human; details: for Percent Change (%) from time of administering ONL1204 to surgery ICAM1: individual patients
# Description: (§1) During the study, ocular fluid samples were also collected at the time of study drug injection and at the time of vitrectomy. These samples were used for pharmacokinetic and pharmacodynamic analyses.
# (§2) Patients were enrolled in ascending dose groups. […] Safety visits were conducted one day post-injection and as deemed necessary by the examining Investigator (at least 1 visit every 3 days) until Visit 3. At Visit 3 (3+ days post-injection, in accordance with standard of care) patients underwent surgical repair of their retinal detachment with vitrectomy (with or without scleral buckling) and gas or oil tamponade. At the time of surgery, an undiluted vitreous sample was collected for pharmacokinetic and pharmacodynamics analyses, and an aqueous sample was collected for pharmacodynamic analysis. Additional safety visits were targeted for and generally conducted one day post-surgery, 7 days (±3 days) post-surgery, 14 (±4 days) days post-surgery, and Weeks 6, 9, 12 (±7 days each), and Week 24 (±14 days; study exit).
# [1] = test system: patients with retinal detachment; assay: Retinal detachment study, best corrected visual acuity; assay type: in vivo, human; parameters: key to BCVA Snellen study eye baseline / BCVA Snellen study eye week 9: HM = hand motion; CF = counting fingers; details: for BCVA logMAR study eye week 6 / BCVA Snellen study eye week 6: week 6, individual patients; for BCVA logMAR study eye week 9 / BCVA Snellen study eye week 9: week 9, individual patients; for BCVA logMAR study eye week 24 / BCVA Snellen study eye week 24: week 24, individual patients
# Description: as §1, §2
# Therefore, a volume of 0.05 or 0.1 mL was injected into the study eye. Patient participation was approximately 24 weeks (6 months): a single injection treatment and 24 weeks of follow-up.
# MCP1 = assay: Retinal detachment study, cytokine change from administration to surgery: MCP1; assay type: in vivo, human; details: for Percent Change (%) from time of administering ONL1204 to surgery MCP1: individual patients
# Description: as §1, §2
# [2] = rabbit, in vivo
# Description: Body weights were measured and recorded prior to first dose, approximately weekly (for surviving animals through Week 12), and prior to euthanasia. […] Ophthalmic examinations were performed using the Hackett-McDonald Scoring System on Days 0, 7, 14, 28, 90, 97, 151, and 168. Pharmacokinetic analyses were performed on the vitreous humor concentration data.
# Seven animals received a repeat IVT dose at 2 mg/mL (0.1 mg/eye) on Day 90.
# Vitreous humor, retina, and choroid were collected on days 1, 7, 14, 28, 42, 61, 90, 97, 151, and 168. Eyes were enucleated, snap frozen using liquid nitrogen, and kept on dry ice or frozen at −80° C. until dissected for collection of aqueous humor, vitreous humor, retina, choroid, iris-ciliary body (ICB), and lens.
# To homogenize ocular tissue samples, weighed amounts of control bovine vitreous humor, retina, and choroid were homogenized in USA scientific impact resistant microtubes containing 2.8 mm ceramic beads. Unknown rabbit vitreous humor, retina, and choroid samples were homogenized in USA scientific impact resistant microtubes containing 2.8 mm ceramic beads. […]
# IL18 = assay: Retinal detachment study, cytokine change from administration to surgery: IL18; assay type: in vivo, human; details: for Percent Change (%) from time of administering ONL1204 to surgery IL18: individual patients
# Description: as §1, §2
# male rabbit NaIO3 model = assay: Sodium iodate (NaIO3) challenge study, lesion size (area of RPE depigmentation); assay type: in vivo; details: for lesion area versus negative control: NaIO3 challenge Day 4; for mean lesion size smaller compared to negative controls: NaIO3 challenge Day 59
# Description: Animals were anesthetized with isoflurane vapors to effect. […] No reflux was noted on the dosing record.
# Animals were anesthetized with isoflurane vapors to effect.
# The resulting area was then measured.
# IL1RA = assay: Retinal detachment study, cytokine change from administration to surgery: IL1RA; assay type: in vivo, human; details: for Percent Change (%) from time of administering ONL1204 to surgery IL1RA: individual patients
# Description: as §1, §2
# [3] = test system: patients with retinal detachment; assay: Retinal detachment study, adverse events; assay type: in vivo, human
# Description: The primary objective was to determine the Maximum Tolerated Dose (MTD) of a peptide an amino acid sequence […] and the structure of Formula III (ONL1204) and select doses for further clinical studies. During the study, ocular fluid samples were also collected at the time of study drug injection and at the time of vitrectomy. These samples were used for pharmacokinetic and pharmacodynamic analyses.
# as §2
# Planned determinations of dose limiting toxicity included consideration of the following events: • 1.
# [4] = test system: patients with progressing open angle glaucoma; assay: Multi-dose study in progressing open-angle glaucoma, Humphrey Visual Field analysis; assay type: in vivo, human
# Description: Visual function metrics were measured at over two screening time points, a baseline, and at about days 90, 177, 180, and 270. Measures for visual function included visual field analysis pre- and post-treatment with ONL1204.
# Patients were part of the study for approximately 39 weeks (270 days). Randomization was be stratified by HVF mean deviation (−5.00 dB to >−10.00 dB and ≤−10.00 dB to −15.00 dB).
# FIGS. 3-5 show study and fellow eye data for the changes in mean visual field analysis of clusters in sham, 50 ug, and 100 ug patients. The data represents mean data for each cluster (10 clusters per patient). […] Each cluster is denoted by a rate of change in sensitivity, in dB/yr. The Baseline sensitivity of each cluster is denoted in dB. Positive values indicate an improvement in visual field and/or improving rate of visual field change. FIGS. 6-8 show study and fellow eye data for the changes in mean visual field analysis (unclustered, point specific, pointwise) in sham, 50 ug, and 100 ug patients.
# [5] = minipig, in vivo
# Description: Seven animals received a repeat IVT dose at 2 mg/mL (0.1 mg/eye) on Day 90. […] Vitreous humor, retina, and choroid were collected on days 1, 7, 14, 28, and 88.
# [6] = test system: patients having macular degeneration characterized by geographic atrophy (GA); assay: Study in geographic atrophy (GA) patients, BCVA; assay type: in vivo, human; details: single IVT injection, doses 25 ug and 50 ug as printed
# Description: Baseline best corrected visual acuity (BCVA) was measured prior to treatment with ONL1204.
substance,measurement,setting,value
HHIYLGAVNYIY-NH2 [ONL1204],Percent Change (%) from time of administering ONL1204 to surgery ICAM1,ICAM1; 25 ug (dose per Table 1),−82.4% and −42.7% and −86.2%
same,Percent Change (%) from time of administering ONL1204 to surgery ICAM1,ICAM1; 50 ug (dose per Table 1),64.0% and −100% and 0%
same,Percent Change (%) from time of administering ONL1204 to surgery ICAM1,ICAM1; 100 ug (dose per Table 1),−43.9% and 24.9% and 22.7%
same,Percent Change (%) from time of administering ONL1204 to surgery ICAM1,ICAM1; 200 ug (dose per Table 1),0%
same,mean change in ICAM from administration to surgery,ICAM1; all patients of Table 7,mean decrease
same,BCVA logMAR study eye week 6,[1]; 25 ug (dose per Table 1),0.34 logMAR and 0.18 logMAR and 0.82 logMAR (2×)
same,BCVA logMAR study eye week 9,[1]; 25 ug (dose per Table 1),0.14 logMAR and 0.12 logMAR and 0.64 logMAR and 0.78 logMAR
same,BCVA logMAR study eye week 24,[1]; 25 ug (dose per Table 1),0.5 logMAR and 0.2 logMAR and 0.68 logMAR and 0.7 logMAR
same,BCVA Snellen study eye baseline,"[1]; 25 ug single IVT, baseline, individual patients",20/160 and 20/100 and 20/200 and HM
same,BCVA Snellen study eye week 6,[1]; 25 ug single IVT,20/40 and 20/32 and 20/125 (2×)
same,BCVA Snellen study eye week 9,[1]; 25 ug single IVT,20/25 (2×) and 20/100 and 20/125
same,BCVA Snellen study eye week 24,[1]; 25 ug single IVT,20/60 and 20/32 and 20/100 (2×)
same,BCVA logMAR study eye baseline,"[1]; 50 ug (dose per Table 1), baseline, individual patients",3 logMAR and 2 logMAR (3×)
same,BCVA logMAR study eye week 6,[1]; 50 ug (dose per Table 1),0.46 logMAR and 0.38 logMAR (2×) and 0.52 logMAR
same,BCVA logMAR study eye week 9,[1]; 50 ug (dose per Table 1),0.6 logMAR and 0.56 logMAR and 0.34 logMAR
same,BCVA logMAR study eye week 24,[1]; 50 ug (dose per Table 1),0.76 logMAR and 0.2 logMAR and 0.64 logMAR and 0.34 logMAR
same,BCVA Snellen study eye baseline,"[1]; 50 ug single IVT, baseline, individual patients",HM and CF (3×)
same,BCVA Snellen study eye week 6,[1]; 50 ug single IVT,20/50 (2×) and 20/80
same,BCVA Snellen study eye week 9,[1]; 50 ug single IVT,20/80 (2×) and 20/50
same,BCVA Snellen study eye week 24,[1]; 50 ug single IVT,20/125 and 20/32 and 20/80 and 20/50
same,BCVA logMAR study eye week 6,[1]; 100 ug (dose per Table 1),0.8 logMAR and 0.7 logMAR and 1 logMAR and 1.6 logMAR
same,BCVA logMAR study eye week 24,[1]; 100 ug (dose per Table 1),0.5 logMAR and 0.7 logMAR and 1.3 logMAR and 0.6 logMAR
same,BCVA Snellen study eye baseline,"[1]; 100 ug single IVT, baseline, individual patients",HM (2×) and 20/100 and 20/200
same,BCVA Snellen study eye week 6,[1]; 100 ug single IVT,20/125 and 20/100 and 20/200 and 20/800
same,BCVA Snellen study eye week 9,[1]; 100 ug single IVT,20/200 and 20/80 and HM and 20/400
same,BCVA Snellen study eye week 24,[1]; 100 ug single IVT,20/63 and 20/100 and 20/400 and 20/80
same,BCVA logMAR study eye week 6,[1]; 200 ug (dose per Table 1),0.4 logMAR and 0.7 logMAR
same,BCVA logMAR study eye week 9,[1]; 200 ug (dose per Table 1),0.36 logMAR and 0.6 logMAR
same,BCVA logMAR study eye week 24,[1]; 200 ug (dose per Table 1),0.2 logMAR
same,BCVA Snellen study eye baseline,"[1]; 200 ug single IVT, baseline, individual patients",20/160 and HM
same,BCVA Snellen study eye week 6,[1]; 200 ug single IVT,20/50 and 20/100
same,BCVA Snellen study eye week 9,[1]; 200 ug single IVT,20/40 and 20/80
same,BCVA Snellen study eye week 24,[1]; 200 ug single IVT,20/32
same,"summary statistics for all patients, mean (BCVA logMAR), Week 9","[1]; all doses, n 13, week 9",0.78
same,"summary statistics for all patients, mean (BCVA logMAR), Week 24","[1]; all doses, n 13, week 24",0.56
same,"summary statistics for all patients, mean (BCVA logMAR), Baseline","[1]; all doses, n 14, baseline",1.86
same,"summary statistics for all patients, mean (BCVA logMAR), Week 6","[1]; all doses, n 14, week 6",0.65
same,visual outcomes (visual acuity),[1]; all patients receiving 25 ug and 50 ug,improvement in visual outcomes
same,Percent Change (%) from time of administering ONL1204 to surgery MCP1,MCP1; 25 ug (dose per Table 1),−41.4% and −6.02% and −35.9%
same,Percent Change (%) from time of administering ONL1204 to surgery MCP1,MCP1; 50 ug (dose per Table 1),−3.12% and −48.4% and 11.6%
same,Percent Change (%) from time of administering ONL1204 to surgery MCP1,MCP1; 100 ug (dose per Table 1),−9.5% and 78.5% and 500%
same,Percent Change (%) from time of administering ONL1204 to surgery MCP1,MCP1; 200 ug (dose per Table 1),−2.4%
same,mean change in MCP1 from administration to surgery,MCP1; all patients of Table 7,mean decrease
same,detection in retinal tissue and vitreous humor,[2],detected in retinal tissue as well as the vitreous humor after 168 days
same,detection in the vitreous humor,[2],detected in the vitreous humor across all time points analyzed
same,Percent Change (%) from time of administering ONL1204 to surgery IL18,IL18; 25 ug (dose per Table 1),−60.5% and −22.5% and −50.8%
same,Percent Change (%) from time of administering ONL1204 to surgery IL18,IL18; 50 ug (dose per Table 1),0% (2×) and −100%
same,Percent Change (%) from time of administering ONL1204 to surgery IL18,IL18; 100 ug (dose per Table 1),−33.7% and 0% and 66.0%
same,Percent Change (%) from time of administering ONL1204 to surgery IL18,IL18; 200 ug (dose per Table 1),0%
same,mean change in IL18 from administration to surgery,IL18; all patients of Table 7,mean decrease
same,mean lesion size across challenge time points,male rabbit NaIO3 model; 25 ug and 100 ug per eye IVT Day 0,substantive reduction in mean lesion size
same,lesion area versus negative control,male rabbit NaIO3 model; 25 ug per eye IVT Day 0,significantly lower than negative control
same,mean lesion size smaller compared to negative controls,male rabbit NaIO3 model; 25 ug per eye IVT Day 0,40%
same,lesion area versus negative control,male rabbit NaIO3 model; 100 ug per eye IVT Day 0,significantly lower than negative control
same,lesion size versus negative controls and 25 ug,"male rabbit NaIO3 model; 100 ug per eye IVT Day 0, NaIO3 challenge Day 14",significantly smaller lesion size
same,lesion size versus negative control and 25 ug,"male rabbit NaIO3 model; 100 ug per eye IVT Day 0, NaIO3 challenge Day 28",significantly smaller lesion size
same,mean lesion size smaller compared to negative controls,male rabbit NaIO3 model; 100 ug per eye IVT Day 0,50%
same,Percent Change (%) from time of administering ONL1204 to surgery IL1RA,IL1RA; 25 ug (dose per Table 1),−51.0% and −57.4% and −99.3%
same,Percent Change (%) from time of administering ONL1204 to surgery IL1RA,IL1RA; 50 ug (dose per Table 1),−60.0% and −94.4% and −88.3%
same,Percent Change (%) from time of administering ONL1204 to surgery IL1RA,IL1RA; 100 ug (dose per Table 1),8.5% and −46.1% and −65.2%
same,Percent Change (%) from time of administering ONL1204 to surgery IL1RA,IL1RA; 200 ug (dose per Table 1),−26.3%
same,mean change in IL1RA from administration to surgery,IL1RA; all patients of Table 7,mean decrease
same,severity of adverse events,"[3]; 25 ug and 50 ug, study procedure or surgery related",Most were mild
same,patients experiencing adverse events,"[3]; 4 patients 25 ug and 4 patients 50 ug, single IVT",7 out of 8
same,total adverse events,"[3]; 8 patients, 25 ug and 50 ug",20
same,visual field outcomes as measured by Humphrey Visual Field (HVF) analysis,"[4]; 50 ug and 100 ug, two IVT injections (day 0, day 90), compared to sham",improvement in visual field outcomes; also recorded: improvement in visual field was generally observed
same,visual field benefit in patients having lower baseline sensitivities,[4]; baseline sensitivity equal to or less than −5,benefits of ONL1204 treatment were also observed
same,detection in the vitreous humor,[5],detected in the vitreous humor across all time points analyzed
same,"visual outcomes (visual acuity, BCVA) versus baseline",[6],improvement in visual outcomes
